Assay results: PMC12966373 (Nature Communications, 2026)

What was measured:
[1] = Coacervate assembly via pH shift: size and number by microscopy; assay type: physicochemical; details: peptide 0.5 mg/mL or higher
[2] = system: B16-F10 murine melanoma cells; test: Coacervate uptake in B16-F10 cells; assay type: cell-based, mouse; details: particles pre-assembled at 0.5 mg/mL, diluted 1:10 to 1:3 in media; 4 h and 24 h
U2OS cells = test: Coacervate uptake and stability over 5 days in U2OS cells; assay type: cell-based, human; details: particles pre-assembled at 0.5 mg/mL, diluted 1:10 to 1:3 in media; 4 h and 24 h
[3] = cited from earlier work
primary human monocytes = test: Coacervate uptake in primary human monocytes; assay type: cell-based; details: particles pre-assembled at 0.5 mg/mL, diluted 1:10 to 1:3 in media; 4 h and 24 h

average particle diameter [1]: > 2 µm
Substance: GHGVYGHGVYGHGPYGHGPYGHGLYW [HBpep]
uptake by cells [2]: highly efficient uptake | uptake by cells (U2OS cells): highly efficient uptake | solubility in acidic buffer ([3]; pH 4.5): largely soluble | behaviour at physiological pH ([3]; pH 7.4, standard conditions): phase separate | uptake by cells (primary human monocytes): highly efficient uptake
